Values joined by “and” are separate entries in the source; they are usually repeats but may differ in a detail not shown here. Identical values can stand only once.
What was measured:
[1] = test system: NCI-H358 (K-Ras G12C); experiment: CellTiter-Glo cell viability assay, NCI-H358; format: cell-based, human; details: Homo sapiens, NCI-H358, 120 h, NCI-H358, 5-day treatment; class symbols; read-out: Additional H358 Cell Viability assay data (K-Ras G12C, IC50)
Outline: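 Steps: compound dispensed into wells holding cells; incubation to day 5; ~30 min room-temperature equilibration; luminescence read; sample signal divided by mean DMSO signal, times 100; four-parameter logistic curve fit.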

[2] = molecular target: KRAS G12S (Homo sapiens (Human), UniProt P01116+P62937, G12S); experiment: Ras-Raf (BRAF RBD) disruption / FRET / MOA assay, KRAS G12S; format: biochemical; details: Ras-Raf disruption/FRET/MOA assay; class symbols; read-out: KRAS G12S FRET data IC50
Outline: (§1)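 A 10-point, 3-fold dilution series topping at 30 μM final was incubated 3 h at 25° C with the Ras/cyclophilin A/BRAF RBD mixture.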

[3] = molecular target: KRAS G12D (Homo sapiens (Human), UniProt P01116+P62937, G12D); experiment: Ras-Raf (BRAF RBD) disruption / FRET / MOA assay, KRAS G12D; format: biochemical; details: Ras-Raf disruption/FRET/MOA assay; class symbols; read-out: KRAS G12D FRET data IC50
Outline: as §1

[4] = molecular target: KRAS WT (Homo sapiens (Human), UniProt P01116+P62937); experiment: Ras-Raf (BRAF RBD) disruption / FRET / MOA assay, KRAS WT; format: biochemical; details: read-out: IC50* KRAS WT FRET data
Outline: as §1

[5] = molecular target: K-Ras G13C (Homo sapiens (Human), UniProt P01116+P62937, G13C); experiment: Ras-Raf (BRAF RBD) disruption / FRET / MOA assay, KRAS G13C; format: biochemical; details: KRAS G13C; Ras-Raf disruption/FRET/MOA assay; read-out: IC50* KRAS G13C FRET data
Outline: as §1

[6] = test system: NCI-H358 cells (K-Ras G12C); experiment: Potency assay: pERK in NCI-H358 cells; format: cell-based, human; details: Homo sapiens, NCI-H358; H358 KRAS G12C; read-out: pERK EC50
Outline: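 Inhibition of cellular pERK after a 4 h treatment, detected by AlphaLISA or In-Cell Western. IC50 from a four-parameter concentration-response fit.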

[7] = molecular target: K-Ras G12C (Homo sapiens (Human), UniProt P01116+P62937, G12C); experiment: Ras-Raf (BRAF RBD) disruption / FRET / MOA assay, KRAS G12C; format: biochemical; details: KRAS G12C; Ras-Raf disruption/FRET/MOA assay; read-out: IC50* KRAS G12C FRET data
Outline: as §1

[8] = molecular target: KRAS G12V (Homo sapiens (Human), UniProt P01116+P62937, G12V); experiment: Ras-Raf (BRAF RBD) disruption / FRET / MOA assay, KRAS G12V; format: biochemical; details: read-out: IC50* KRAS G12V FRET data
Outline: as §1

[9] = molecular target: NRAS G12C (Homo sapiens (Human), UniProt P01111+P62937, G12C); experiment: Ras-Raf (BRAF RBD) disruption / FRET / MOA assay, NRAS G12C; format: biochemical; details: read-out: IC50* NRAS G12C FRET data
Outline: as §1

[10] = molecular target: KRAS G13D (Homo sapiens (Human), UniProt P01116+P62937, G13D); experiment: Ras-Raf (BRAF RBD) disruption / FRET / MOA assay, KRAS G13D; format: biochemical; details: read-out: IC50* KRAS G13D FRET data
Outline: as §1

Sequence of KRAS G12D (P01116-2 other isoform, or with tags, fused parts or gaps G12D): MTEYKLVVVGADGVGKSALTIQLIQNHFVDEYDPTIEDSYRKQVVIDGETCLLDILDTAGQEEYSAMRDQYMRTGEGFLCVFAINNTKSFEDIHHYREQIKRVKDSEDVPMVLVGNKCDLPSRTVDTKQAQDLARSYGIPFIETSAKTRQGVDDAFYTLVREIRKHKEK
Sequence of KRAS G12D (P62937 whole entry): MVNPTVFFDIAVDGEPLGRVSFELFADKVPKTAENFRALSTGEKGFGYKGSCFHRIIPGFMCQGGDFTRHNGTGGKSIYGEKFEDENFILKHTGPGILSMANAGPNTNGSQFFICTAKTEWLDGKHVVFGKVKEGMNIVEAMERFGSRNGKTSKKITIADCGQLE
Sequence of K-Ras G12C (P01116-2 other isoform, or with tags, fused parts or gaps G12C): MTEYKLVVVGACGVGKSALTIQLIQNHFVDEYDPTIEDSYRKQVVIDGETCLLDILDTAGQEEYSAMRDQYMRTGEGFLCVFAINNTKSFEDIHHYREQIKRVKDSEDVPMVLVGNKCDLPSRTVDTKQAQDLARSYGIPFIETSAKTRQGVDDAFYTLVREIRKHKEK
Sequence of K-Ras G12C (P62937 whole entry): as the sequence (P62937 whole entry) above
Sequence of KRAS G12V (P01116-2 other isoform, or with tags, fused parts or gaps G12V): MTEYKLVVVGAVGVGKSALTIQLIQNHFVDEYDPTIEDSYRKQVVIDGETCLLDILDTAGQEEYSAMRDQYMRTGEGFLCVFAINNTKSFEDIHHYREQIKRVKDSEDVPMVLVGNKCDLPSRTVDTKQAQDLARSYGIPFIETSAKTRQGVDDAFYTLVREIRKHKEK
Sequence of KRAS G12V (P62937 whole entry): as the sequence (P62937 whole entry) above
Sequence of KRAS G12S (P01116-2 other isoform, or with tags, fused parts or gaps G12S): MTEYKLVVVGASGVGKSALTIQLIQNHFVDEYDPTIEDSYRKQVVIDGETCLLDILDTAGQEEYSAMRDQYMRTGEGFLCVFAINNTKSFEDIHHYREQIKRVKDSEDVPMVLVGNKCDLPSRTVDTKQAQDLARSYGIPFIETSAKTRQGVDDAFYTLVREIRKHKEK
Sequence of KRAS G12S (P62937 whole entry): as the sequence (P62937 whole entry) above
Sequence of KRAS G13D (P01116-2 other isoform, or with tags, fused parts or gaps G13D): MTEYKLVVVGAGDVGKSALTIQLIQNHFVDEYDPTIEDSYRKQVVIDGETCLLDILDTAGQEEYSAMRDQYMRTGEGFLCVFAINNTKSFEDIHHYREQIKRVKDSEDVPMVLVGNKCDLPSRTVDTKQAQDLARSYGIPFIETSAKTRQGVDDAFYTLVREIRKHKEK
Sequence of KRAS G13D (P62937 whole entry): as the sequence (P62937 whole entry) above
Sequence of NRAS G12C (P01111 whole entry G12C): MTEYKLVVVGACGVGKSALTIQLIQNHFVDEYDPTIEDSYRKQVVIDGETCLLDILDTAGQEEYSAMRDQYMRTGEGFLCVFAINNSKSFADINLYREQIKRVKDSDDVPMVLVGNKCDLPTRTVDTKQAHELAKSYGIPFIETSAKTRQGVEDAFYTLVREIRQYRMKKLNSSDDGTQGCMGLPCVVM
Sequence of NRAS G12C (P62937 whole entry): as the sequence (P62937 whole entry) above
Sequence of KRAS WT (P01116-2 other isoform, or with tags, fused parts or gaps): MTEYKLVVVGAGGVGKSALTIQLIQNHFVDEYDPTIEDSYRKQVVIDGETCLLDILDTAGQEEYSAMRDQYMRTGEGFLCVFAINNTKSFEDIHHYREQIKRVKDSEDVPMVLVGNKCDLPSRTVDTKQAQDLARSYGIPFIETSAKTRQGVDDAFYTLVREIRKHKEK
Sequence of KRAS WT (P62937 whole entry): as the sequence (P62937 whole entry) above
Sequence of K-Ras G13C (P01116-2 other isoform, or with tags, fused parts or gaps G13C): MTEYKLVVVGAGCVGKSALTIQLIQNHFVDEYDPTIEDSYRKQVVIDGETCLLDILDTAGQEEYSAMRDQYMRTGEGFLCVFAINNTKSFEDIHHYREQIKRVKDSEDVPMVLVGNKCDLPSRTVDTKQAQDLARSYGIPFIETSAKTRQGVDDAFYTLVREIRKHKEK
Sequence of K-Ras G13C (P62937 whole entry): as the sequence (P62937 whole entry) above

Row | SMILES | IC50 [1] | IC50 [2] | IC50 [3] | IC50 [4] | IC50 [5] | EC50 [6] | IC50 [7] | IC50 [8] | IC50 [9] | IC50 [10]
1 | CCn1c(-c2cccnc2[C@H](C)OC)c2c3cc(ccc31)-c1cccc(c1)C[C@H](NC(=O)CCOC1CN(C(=O)C#CC(C)(C)N3CCC3)C1)C(=O)N1CCC[C@H](N1)C(=O)OCC(C)(C)C2 (atropisomer, axis not shown) [Example A478] | 10 to 100 nM | > 10000 nM | > 10000 nM | > 10000 nM | > 10000 nM | < 5000 nM | 10 to 100 nM | > 10000 nM | 10 to 100 nM | > 10000 nM
2 | C=CC(=O)N1CC[C@H](C(=O)N(C)[C@H](C(=O)N[C@H]2Cc3cc(O)cc(c3)-c3ccc4c(c3)c(c(-c3ccncc3CN(C)C)n4CC)CC(C)(C)COC(=O)[C@@H]3CCCN(N3)C2=O)C(C)C)C1 [Example A128] | < 10 nM | 100 to 1000 nM | 1000 to 10000 nM | 100 to 1000 nM | 100 to 1000 nM | < 5000 nM | 10 to 100 nM | 100 to 1000 nM | 10 to 100 nM | 100 to 1000 nM
3 | CC#CC(=O)N1CC[C@@]2(CCN([C@H](C(=O)N[C@H]3Cc4cccc(c4)-c4ccc5c(c4)c(c(-c4cccnc4[C@H](C)OC)n5CC)CC(C)(C)COC(=O)[C@@H]4CCCN(N4)C3=O)C(C)C)C2=O)C1 (atropisomer, axis not shown) [Example A426] | 10 to 100 nM | 1000 to 10000 nM | > 10000 nM | 1000 to 10000 nM | 1000 to 10000 nM | < 5000 nM | 100 to 1000 nM | 1000 to 10000 nM | 1000 to 10000 nM | > 10000 nM
4 | CCn1c(-c2cccnc2[C@H](C)OC)c2c3cc(ccc31)-c1nc(cs1)C[C@H](NC(=O)[C@H](C(C)C)N(C)C(=O)[C@H]1CCN(C(=O)C#CC(C)(C)N3CCC3)C1)C(=O)N1CCC[C@H](N1)C(=O)OCC(C)(C)C2 (atropisomer, axis not shown) [Example A440] | < 10 nM | 1000 to 10000 nM | 1000 to 10000 nM | 1000 to 10000 nM | 100 to 1000 nM | < 5000 nM | 10 to 100 nM | 1000 to 10000 nM | 10 to 100 nM | 1000 to 10000 nM
5 | C=CS(=O)(=O)N1CCC2(CCN([C@H](C(=O)N[C@H]3Cc4cc(O)cc(c4)-c4ccc5c(c4)c(c(-c4cccnc4[C@H](C)OC)n5CC)CC(C)(C)COC(=O)[C@@H]4CCCN(N4)C3=O)C(C)C)C2=O)C1 (stereo partly drawn) [Example A298] | < 10 nM | 10 to 100 nM | 100 to 1000 nM | 10 to 100 nM | < 10 nM | < 5000 nM | < 10 nM | 10 to 100 nM | < 10 nM | 10 to 100 nM
6 | C=CC(=O)N1CCC2(CC1)CCN([C@H](C(=O)N[C@H]1Cc3cc(O)cc(c3)-c3ccc4c(c3)c(c(-c3cccnc3[C@H](C)OC)n4CC)CC(C)(C)COC(=O)[C@@H]3CCCN(N3)C1=O)C(C)C)C2=O (atropisomer, axis not shown) [Example A296] | < 10 nM | 100 to 1000 nM | 1000 to 10000 nM | 10 to 100 nM | 10 to 100 nM | < 5000 nM | 10 to 100 nM | 100 to 1000 nM | 10 to 100 nM | 10 to 100 nM
7 | C=CC(=O)N1CC[C@H](C(=O)N(C)[C@H](C(=O)N[C@H]2Cc3cc(O)cc(c3)-c3ccc4c(c3)c(c(-c3cnccc3[C@@H](OC)C3CC3)n4CC)CC(C)(C)COC(=O)[C@@H]3CCCN(N3)C2=O)C(C)C)C1 [Example A274] | 100 to 1000 nM | > 10000 nM | > 10000 nM | > 10000 nM | > 10000 nM | < 5000 nM | 1000 to 10000 nM | > 10000 nM | 1000 to 10000 nM | > 10000 nM
8 | CCn1c(-c2cnccc2[C@H](C)OC)c2c3cc(ccc31)-c1cccc(c1)C[C@H](NC(=O)[C@H](C1CCCC1)N(C)C(=O)[C@H]1CCN(C(=O)C#CCN(C)C)C1)C(=O)N1CCC[C@H](N1)C(=O)OCC(C)(C)C2 [Example A133] | 10 to 100 nM | 1 µM to 10 µM (2×) and > 10 µM | 1000 to 10000 nM | 1 µM to 10 µM (2×) and > 10 µM | 10 nM to 100 nM (2×) and 1 µM to 10 µM | < 5000 nM | 10 nM to 100 nM and < 10 nM (2×) | 1 µM to 10 µM (2×) and > 10 µM | 10 nM to 100 nM and < 10 nM (2×) | 1000 to 10000 nM
9 | C=CC(=O)N1CC[C@H](C(=O)N(C)[C@H](C(=O)N[C@H]2Cc3cc(O)cc(c3)-c3ccc4c(c3)c(c(-c3cc(CN(C)C)cnc3[C@H](C)OC)n4CC)CC(C)(C)COC(=O)[C@@H]3CCCN(N3)C2=O)C(C)C)C1 (atropisomer, axis not shown) [Example A536] | 10 to 100 nM | 100 to 1000 nM | 1000 to 10000 nM | 100 to 1000 nM | 100 to 1000 nM | < 5000 nM | 10 to 100 nM | 100 to 1000 nM | 10 to 100 nM | 100 to 1000 nM
10 | C=CC(=O)N1C[C@H](C)N(C(=O)N(C)[C@H](C(=O)N[C@H]2Cc3nc(cs3)-c3ccc4c(c3)c(c(-c3cccnc3[C@H](C)OC)n4CC)CC(C)(C)COC(=O)[C@@H]3CCCN(N3)C2=O)C(C)C)C[C@H]1C (atropisomer, axis not shown) [Example A430] | 10 to 100 nM | 100 to 1000 nM | 1000 to 10000 nM | 100 to 1000 nM | 100 to 1000 nM | < 5000 nM | 100 to 1000 nM | 1000 to 10000 nM | 100 to 1000 nM | 1000 to 10000 nM
11 | C=CC(=O)N1CC(OC[C@H](C(=O)N[C@H]2Cc3nc(cs3)-c3ccc4c(c3)c(c(-c3cccnc3[C@H](C)OC)n4CC)CC(C)(C)COC(=O)[C@@H]3CCCN(N3)C2=O)C(C)C)C1 (atropisomer, axis not shown) [Example A462] | < 10 nM | 1000 to 10000 nM | > 10000 nM | 1000 to 10000 nM | 1000 to 10000 nM | < 5000 nM | 100 to 1000 nM | 1000 to 10000 nM | 100 to 1000 nM | > 10000 nM
12 | CCn1c(-c2cccnc2[C@H](C)OC)c2c3cc(ccc31)-c1cccc(c1)C[C@H](NC(=O)[C@H](C(C)C)N(C)C(=O)[C@H]1CCN(C(=O)C#CC3CCO3)C1)C(=O)N1CCC[C@H](N1)C(=O)OCC(C)(C)C2 (mixture of isomers) [Example A509] | < 10 nM | 1000 to 10000 nM | > 10000 nM | 1000 to 10000 nM | 100 to 1000 nM | < 5000 nM | < 10 nM | 1000 to 10000 nM | < 10 nM | 1000 to 10000 nM

Source: US11566007B2, “Ras inhibitors” (Revolution Medicines, Inc., priority 2019, dated 2023)
